Experimental data published in patent publication US10570179B2, “Substituted urea depsipeptide analogs as activators of the CLPP endopeptidase” (priority 2016, dated 2020).
Values after ≈ are worked out from the molar mass of the structure shown. Like-named read-outs stand apart in the source and are kept apart here. Numbered stars: 1 amine (or outer) side, 2 acyl side, 3 side chain; on linkers, the order of the positions; unused ones are H or OH. Bridge positions count the residues as written; N and C are the ends. Square brackets hold non-standard residues; d marks the D form. Peptide text beside a SMILES is read from it. * marks the point of attachment. Phe(3-CF3) = N[C@@H](Cc1cccc(C(F)(F)F)c1)C(=O)O; Piperazine(2S-CO,4-Me) = CN1CCN[C@H](C(=O)O)C1; NH(1,3-benzodioxol-5-yl) = c1cc2c(cc1N*)OCO2; Phe(3-Me) = Cc1cccc(C[C@H](N)C(=O)O)c1; NH(4-Cl-2-F-phenyl) = Fc1cc(Cl)ccc1N*; Pro(4R-Me) = C[C@H]1CN[C@H](C(=O)O)C1; NH(4-Et-phenyl) = CCc1ccc(N*)cc1; NH(4-Me-phenyl) = Cc1ccc(N*)cc1; CO = O=C([*:1])[*:2]; X2 = Fc1cc(N*)ccc1Cl

What was measured:
Plasma stability assay [1] = type: in vitro ADME, human
Procedure: (§1) The plasma stability property of early drug discovery compounds can influence the in vivo efficacy of the test compounds/drugs. Human and/or mouse plasma degradation is determined using multiple time points to monitor the rate of disappearance of the parent compound during incubation.
(§2) Sample preparation for plasma stability was modified from Di et al. (2005) Int. J. Pharm. 297(1-2): 110-119. A set of incubation times of 0, 3, 24, and 48 hour were used. DMSO stock solutions of test compounds were prepared at 10 mM concentration. 1.8 μL of each test compound was each added directly to 1.8 mL of human/mouse plasma to get the final concentration of 10 μM. This compound/matrix was mixed and 70 μL was transferred to 8 time points plates (each in triplicate wells). For the Time 0 plate, 210 μL of cold acetonitrile with internal standard (4 μg/mL warfarin) was added to each well and no incubation needed. For other seven time points' plate, the plate was incubated at 37° C. for required time, followed by quenching of the reaction by adding 210 μL of cold acetonitrile with internal standard (4 μg/ml warfarin) to each well. All of the plates were sealed and mixed well at 600 rpm for 10 min and were centrifuged at 4000 rpm for 20 min. The supernatants (120 μL) were transferred to analytical plates for analysis by LCMS. Conditions for Waters ACQUITY-UPLC-MS-UV system was described separately. The plasma stability was evaluated via the half-life from least-squares fit of the multiple time points based on first-order kinetics.

MRSA NRS70 = assay: Minimal inhibitory concentration, microbroth dilution; type: cell-based; settings: Staphylococcus aureus
Procedure, shortened: (§3)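 Compound was diluted twofold in the appropriate broth. Bacterial suspension (approx. 10^5 cfu/mL) was then added in equal volume, giving a maximum test concentration of 200 μM. After aerobic overnight incubation at 37 °C, wells were inspected visually for growth.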

E. faecails = assay: as above; type: cell-based; settings: Enterococcus faecalis
Procedure, shortened: as §3

S. aureus USA 300 = assay: as above; type: cell-based; settings: Staphylococcus aureus
Procedure, shortened: as §3

S. aureus ATCC 29213 = assay: as above; type: cell-based; settings: Staphylococcus aureus
Procedure, shortened: as §3

Plasma stability assay [2] = type: in vitro ADME, mouse
Procedure: as §1, §2

[3] = Plasma protein binding, rapid equilibrium dialysis; type: in vitro ADME, human; settings: 10 μM
Procedure: (§4) This assay determines plasma protein binding of a drug/compound and free drug concentration in plasma using rapid equilibrium dialysis, which allow the aqueous component of plasma containing the free drug/compound through a dialysis membrane (MWCO˜8,000).
(§5) Solutions were prepared at 10 mM in DMSO. Dulbecco's phosphate buffered saline (DPBS; pH 7.4) was obtained from Invitrogen (Carlsbad, Calif.). Single-Use RED (rapid equilibrium dialysis) device was obtained from Thermo scientific (Rockford, Ill.). Human plasma was obtained from Innovative Research INC (Novi, Michigan, Ill).
(§6) Sample preparation for plasma protein binding was modified from Waters' method. (Waters et al. (2008) J. Pharm. Sci. 97(10): 4586-95). The Teflon base plate with the RED inserts (MWCO 8 K) were allowed to use without any pre-condition the membrane inserts. Human plasma was thawed and centrifuged at 1000 rpm for 2 min to remove any particulates. Each compound was prepared at 10 μM in human plasma. This was done by adding 1 μL, of drug solution (10 mM in DMSO) to 1000 μL, of human plasma (0.1% DMSO). Spiked plasma solutions (300 μL) were placed into the sample chamber (indicated by the red ring) and 500 μL, of DPBS into the adjacent chamber. The plate was sealed and incubated at 37° C. on an orbital shaker (100 rpm) for 4 hours. After incubation, the seal was removed from the RED plate and the volume of the insert confirmed—little to no volume change occurred. Aliquots (50 μL) were removed from each side of the insert and dispensed into a 96-well deep plate. An equal volume of blank plasma or DPBS was added to the required wells to create analytically identical sample matrices (matrix matching). To each sample 200 μL, of ACN containing 4 μg/mL warfarin IS was added. All of the plates were sealed and mixed well at 600 rpm for 10 min and were centrifuged at 4000 rpm for 20 min. The supernatants (120 μL) were transferred to analytical plates for analysis by LCMS. Conditions for Waters ACQUITY-UPLC-MS-UV system were described separately. The test compound concentrations were quantified in both buffer and plasma chambers via peak areas relative to the internal standard. The percentage of the test compound bound to plasma was calculated on following equations: % Free=(Concentration buffer chamber/concentration plasma chamber)×100% and % Bound=100%-% Free.

[4] = Plasma protein binding, rapid equilibrium dialysis; type: in vitro ADME, mouse
Procedure: as §4, §5, §6

[5] = MIC, read-out: Minimal Inhibitory Concentrations (μM) MRSA NRS70
[6] = MIC, read-out: Minimal Inhibitory Concentrations (μM) E. faecails
[7] = USA300, MIC, read-out: Minimal Inhibitory Concentrations (μM) S. aureus USA 300
[8] = ATCC29213, MIC, read-out: Minimal Inhibitory Concentrations (μM) S. aureus ATCC 29213

| Structure (SMILES) | Human (Plasma stability assay [1]; human, 10 μM) [h] | MIC (MRSA NRS70; [5]) [µM] | MIC (E. faecails; [6]) [µM] | MIC (S. aureus USA 300; [7]) [µM] | MIC (S. aureus ATCC 29213; [8]) [µM] | Mouse (Plasma stability assay [2]; mouse, 10 μM) [h] | Human ([3]; human, 4 h, pH 7.4) [%] | Mouse ([4]; mouse, 4 h, 10 μM, pH 7.4) [%] | Human (Plasma stability assay [1]; plasma stability half-life, human plasma, 37° C.) [h] | MIC (MRSA NRS70; read-out: Minimal Inhibitory Concentrations (μM) MRSA NRS70, MIC) [µM] | MIC (E. faecails; read-out: Minimal Inhibitory Concentrations (μM) E. faecails, MIC) [µM] | MIC (S. aureus USA 300; USA300, read-out: Minimal Inhibitory Concentrations (μM) S. aureus USA 300, MIC) [µM] | MIC (S. aureus ATCC 29213; ATCC29213, read-out: Minimal Inhibitory Concentrations (μM) S. aureus ATCC 29213, MIC) [µM] | Mouse (Plasma stability assay [2]; plasma stability half-life, mouse plasma, 37° C.) [h] | Human ([3]; plasma binding, % Bound, human plasma) [%] | Mouse ([4]; plasma binding, % Bound, mouse plasma) [%] |
| --- | --- | --- | --- | --- | --- | --- | --- | --- | --- | --- | --- | --- | --- | --- | --- | --- |
| Cc1cccc(C[C@H](NC(=O)Nc2ccc(Cl)cc2F)C(=O)N[C@H]2COC(=O)[C@@H]3C[C@@H](C)CN3C(=O)[C@H](C)NC(=O)[C@@H]3CN(C)CCN3C(=O)[C@@H]3CCCN3C2=O)c1 [Compound 13, (S)-2-(3-(4-CHLORO-2-FLUOROPHENYL)UREIDO)-3-(M-TOLYL)-N-((6AS,12S,15AS,17R,21S,23AS)-2,17,21-TRIMETHYL-6,11,15,20,23-PENTAOXOOCTADECAHYDRO-2H,6H,11H,15H-PYRAZINO[2,1-I]DIPYRROLO[2,1-C:2′,1′-L][1]OXA[4,7,10,13]TETRAAZACYCLOHEXADECIN-12-YL)PROPANAMIDE] ({NH(4-Cl-2-F-phenyl)-CO}-[Phe(3-Me)]SP[Piperazine(2S-CO,4-Me)]A[Pro(4R-Me)]; ester 2-C) | 67.3 ± 13.7 | 1.25 (≈ 1.03 µg/mL) | 0.625 (≈ 0.516 µg/mL) | 2.5 (≈ 2.06 µg/mL) | 1.25 (≈ 1.03 µg/mL) | 10.74 ± 0.8 | 97.0 ± 0.6 | 97.5 ± 0.3 |  |  |  |  |  |  |  |  |
| Cc1cccc(C[C@H](NC(=O)Nc2ccc(Cl)c(F)c2)C(=O)N[C@H]2COC(=O)[C@@H]3C[C@@H](C)CN3C(=O)[C@H](C)NC(=O)[C@@H]3CN(C)CCN3C(=O)[C@@H]3CCCN3C2=O)c1 [Compound 14, (S)-2-(3-(4-CHLORO-3-FLUOROPHENYL)UREIDO)-3-(M-TOLYL)-N-((6AS,12S,15AS,17R,21S,23AS)-2,17,21-TRIMETHYL-6,11,15,20,23-PENTAOXOOCTADECAHYDRO-2H,6H,11H,15H-PYRAZINO[2,1-I]DIPYRROLO[2,1-C:2′,1′-L][1]OXA[4,7,10,13]TETRAAZACYCLOHEXADECIN-12-YL)PROPANAMIDE] ({X2-CO}-[Phe(3-Me)]SP[Piperazine(2S-CO,4-Me)]A[Pro(4R-Me)]; ester 2-C) | 97.65 ± 17.0 | 2.5 (≈ 2.06 µg/mL) | 1.25 (≈ 1.03 µg/mL) | 5 (≈ 4.13 µg/mL) | 5 (≈ 4.13 µg/mL) | 9.55 ± 0.8 | 99.1 ± 0.2 | 98.9 ± 0.1 |  |  |  |  |  |  |  |  |
| Cc1ccc(NC(=O)N[C@@H](Cc2cccc(C)c2)C(=O)N[C@H]2COC(=O)[C@@H]3C[C@@H](C)CN3C(=O)[C@H](C)NC(=O)[C@@H]3CN(C)CCN3C(=O)[C@@H]3CCCN3C2=O)cc1 [Compound 15, (S)-3-(M-TOLYL)-2-(3-(P-TOLYL)UREIDO)-N-((6AS,12S,15AS,17R,21S,23AS)-2,17,21-TRIMETHYL-6,11,15,20,23-PENTAOXOOCTADECAHYDRO-2H,6H,11H,15H-PYRAZINO[2,1-I]DIPYRROLO[2,1-C:2′,1′-L][1]OXA[4,7,10,13]TETRAAZACYCLOHEXADECIN-12-YL)PROPANAMIDE] ({NH(4-Me-phenyl)-CO}-[Phe(3-Me)]SP[Piperazine(2S-CO,4-Me)]A[Pro(4R-Me)]; ester 2-C) |  |  |  |  |  |  |  |  | >50 | 2.5 (≈ 1.97 µg/mL) | 1.25 (≈ 0.984 µg/mL) | 5 (≈ 3.93 µg/mL) | 2.5 (≈ 1.97 µg/mL) | 5.95 ± 0.6 | 95.2 ± 1.5 | 77.0 ± 6.1 |
| CCc1ccc(NC(=O)N[C@@H](Cc2cccc(C)c2)C(=O)N[C@H]2COC(=O)[C@@H]3C[C@@H](C)CN3C(=O)[C@H](C)NC(=O)[C@@H]3CN(C)CCN3C(=O)[C@@H]3CCCN3C2=O)cc1 [Compound 16, (S)-2-(3-(4-ETHYLPHENYL)UREIDO)-3-(M-TOLYL)-N-((6AS,12S,15AS,17R,21S,23AS)-2,17,21-TRIMETHYL-6,11,15,20,23-PENTAOXOOCTADECAHYDRO-2H,6H,11H,15H-PYRAZINO[2,1-I]DIPYRROLO[2,1-C:2′,1′-L][1]OXA[4,7,10,13]TETRAAZACYCLOHEXADECIN-12-YL)PROPANAMIDE] ({NH(4-Et-phenyl)-CO}-[Phe(3-Me)]SP[Piperazine(2S-CO,4-Me)]A[Pro(4R-Me)]; ester 2-C) | >50 | 0.313 (≈ 0.251 µg/mL) | 0.156 (≈ 0.125 µg/mL) | 0.625 (≈ 0.501 µg/mL) | 1.25 (≈ 1 µg/mL) | 6.86 ± 0.7 | 98.5 ± 0.3 | 97.1 ± 0.1 |  |  |  |  |  |  |  |  |
| Cc1cccc(C[C@H](NC(=O)Nc2ccc3c(c2)OCO3)C(=O)N[C@H]2COC(=O)[C@@H]3C[C@@H](C)CN3C(=O)[C@H](C)NC(=O)[C@@H]3CN(C)CCN3C(=O)[C@@H]3CCCN3C2=O)c1 [Compound 17, (S)-2-(3-(BENZO[D][1,3]DIOXOL-5-YL)UREIDO)-3-(M-TOLYL)-N-((6AS,12S,15AS,17R,21S,23AS)-2,17,21-TRIMETHYL-6,11,15,20,23-PENTAOXOOCTADECAHYDRO-2H,6H,11H,15H-PYRAZINO[2,1-I]DIPYRROLO[2,1-C:2′,1′-L][1]OXA[4,7,10,13]TETRAAZACYCLOHEXADECIN-12-YL)PROPANAMIDE] ({NH(1,3-benzodioxol-5-yl)-CO}-[Phe(3-Me)]SP[Piperazine(2S-CO,4-Me)]A[Pro(4R-Me)]; ester 2-C) | 51.18 ± 6.0 | 5 (≈ 4.08 µg/mL) | 1.25 (≈ 1.02 µg/mL) | 10 (≈ 8.17 µg/mL) | 20 (≈ 16.3 µg/mL) | 6.46 ± 0.4 | 95.4 ± 1.1 | 88.4 ± 1.6 |  |  |  |  |  |  |  |  |
| C[C@@H]1C[C@H]2C(=O)OC[C@H](NC(=O)[C@H](Cc3cccc(C(F)(F)F)c3)NC(=O)Nc3ccc(Cl)cc3F)C(=O)N3CCC[C@H]3C(=O)N3CCN(C)C[C@H]3C(=O)N[C@@H](C)C(=O)N2C1 [Compound 18, (S)-2-(3-(4-CHLORO-2-FLUOROPHENYL)UREIDO)-3-(3-(TRIFLUOROMETHYL)PHENYL)-N-((6AS,12S,15AS,17R,21S,23AS)-2,17,21-TRIMETHYL-6,11,15,20,23-PENTAOXOOCTADECAHYDRO-2H,6H,11H,15H-PYRAZINO[2,1-I]DIPYRROLO[2,1-C:2′,1′-L][1]OXA[4,7,10,13]TETRAAZACYCLOHEXADECIN-12-YL)PROPANAMIDE] ({NH(4-Cl-2-F-phenyl)-CO}-[Phe(3-CF3)]SP[Piperazine(2S-CO,4-Me)]A[Pro(4R-Me)]; ester 2-C) | 46.62 | 5 (≈ 4.4 µg/mL) | 0.313 (≈ 0.275 µg/mL) | 10 (≈ 8.79 µg/mL) | 10 (≈ 8.79 µg/mL) | 66.31 | 99.0 ± 0.1 | 99.2 ± 0.1 |  |  |  |  |  |  |  |  |
